Where a name gives a salt, the structure may show the parent alone.
Tested on: acetylcholine-induced bronchoconstriction in guinea pigs
Assay: Effects on acetylcholine-induced bronchoconstriction in guinea pigs
Type: in vivo, guinea pig
Conditions: Cavia porcellus; 24 hours after 25 μg/kg of the compounds were administered; read-out: percentage of bronchoconstriction suppression with respect to the acetylcholine stimulation
Procedure: These in vivo assays are used to evaluate the bronchoprotective effects based on the M3 muscarinic receptor antagonist activity and the β2 adrenergic receptor agonist activity of test compounds. Hartley male guinea pigs (Nippon SLC, Inc.) weighing about 400-500 g were used. The animals were anesthetized by inhalation of Fluothane (Takeda Pharmaceutical Company Limited) in a plastic box. The test compounds were dissolved in physiological saline containing DMSO, and administered through the nasal cavity into the trachea at a dose of 0.04-25 μg/kg and at a volume of 0.4 mL/kg. For control animals, solvent without a test compound was administered. In general, animals awake several minutes after completion of the administration. The animals were anesthetized with an intraperitoneal administration of 33% urethane/0.8% α-chloralose at a dose of 3 mL/kg. In order to intravenously administer acetylcholine or histamine, a catheter was inserted into the carotid artery. In order to measure artificial respiration and airway ventilation pressure, a cannula was inserted into the trachea. Artificial respiration was applied to the animals at a volume of 10 mL/kg and at a frequency of 60/minute, using a ventilator (Harvard Apparatus). The airway ventilation pressure was measured by the Konzett-Roessler method using a general respiratory function analysis system (M.I.P.S). Prior to administration of acetylcholine or histamine, the airway ventilation pressure was measured and baseline values were recorded. Then, physiological saline was administered through the carotid artery catheter at a volume of 0.4 mL/kg, and the airway ventilation pressure was measured. Bronchoconstrictor response was induced by administering acetylcholine (40 μg/kg, 0.4 mL/kg) or histamine (15 μg/kg, 0.4 mL/kg) through the carotid artery catheter one hour after the administration of the test compounds, and the airway ventilation pressure at the maximum contractile response was recorded. In addition, in order to evaluate duration of action of the test compounds, the above-mentioned dose of acetylcholine or histamine was administered, 1 hour, 6 hours, 12 hours, 18 hours, and 24 hours after the administration of test compounds, and the airway ventilation pressure was measured in the same way. The percentage of suppression by the test compounds with respect to the airway contractile response was calculated according to the following formula. (%) Percentage of the airway constriction suppression=(Airway ventilation pressure of test compound-dosed and acetylcholine- or histamine-dosed animals−Baseline value)/(Airway ventilation pressure of acetylcholine- or histamine-dosed animals−Baseline value)×100
The 50% inhibitory doses (ID50 values) of the test compounds were analyzed by a sigmoidal logistic model using XLfit4 (IDBS, Ltd.) for the percentage of the bronchoconstriction suppression at different doses of the test compounds.

Structure (SMILES)	inhibition in vivo at 0.025 mg/kg [%]
C[N+]1(C)CCC(OC(=O)Nc2cc(CCC(=O)Nc3ccc(CNC[C@H](O)c4ccc(O)c5[nH]c(=O)ccc45)cc3)ccc2-c2ccccc2)CC1 [Example 1, 4-({[5-(2-{[4-({[(2R)-2-hydroxy-2-(8-hydroxy-2-oxo-1,2-dihydroquinolin-5-yl)ethyl]amino}methyl)phenyl]carbamoyl}ethyl)-2-phenylphenyl]carbamoyl}oxy)-1,1-dimethylpiperidin-1-ium trifluoroacetate]	≥ 50
COc1cc(NC(=O)CCCCc2ccc(-c3ccccc3)c(NC(=O)OC3CC[N+](C)(C)CC3)c2)c(Cl)cc1CNC[C@H](O)c1ccc(O)c2[nH]c(=O)ccc12 [Example 51, 4-({[5-(4-{[2-chloro-4-({[(2R)-2-hydroxy-2-(8-hydroxy-2-oxo-1,2-dihydroquinolin-5-yl)ethyl]amino}methyl)-5-methoxyphenyl]carbamoyl}butyl)-2-phenylphenyl]carbamoyl}oxy)-1,1-dimethylpiperidin-1-ium trifluoroacetate]	≥ 50

Reference: patent publication US9072734B2, “Quaternary ammonium salt compounds” (Teijin Pharma Limited, priority 2009, dated 2015)
